Assay results: patent US20250275537A1, “CARBOXAMIDE APYRASE INHIBITORS” (Texas Crop Science, Inc., priority 2024, published 2025)

What was measured:
[1] = tested on: Amaranthus retroflexus (pigweed); test: Enhancement of herbicide activity: pre-emergence Amaranthus kill with metribuzin (Method 4); type: in vivo; settings: Assessed 7 DAT, metribuzin rate 50 g/ha; enhancer at 100 g/ha
Description: Small amounts of acetone were used to aid solubility. The pots were watered immediately after sowing and treatment and then allowed to stand in a glasshouse. Assessment of kill was made seven and fourteen days after treatment. The test included four replicates for each treatment and the control.

[2] = tested on: apyrase; test: Apyrase inhibition assay (Method 1); type: biochemical; settings: inhibitor conc at 1 mM stock, 10 μl per well; 1 hr room temperature; rounded average of at least two assay results
Protocol: Apyrase inhibitors useful as enhancers of pesticidal activity are assessed using an in vitro assay. The method of Windsor, Bio Techniques 33:1024-1030 (November 2002) was used as follows
96 well plates were used for the assay: (Greiner bio-one: REF-655901-96 well, PS, F-bottom, Clear, Non-binding)
• Reaction Buffer: 60 mM Hepes, 3 mM MgCl2, 3 mM CaCl2 and 3 mM ATP (pH 6.5) • Development Buffer A: 2% aqueous ammonium molybdate • Development Buffer B: 11% ascorbic acid in 37.5% TCA in water • Stop buffer C: 2% trisodium citrate in 2% acetic acid solution in water • Add 100 μl of reaction buffer to each well. • Add 10 μl of DMSO (control) or inhibitor/compound or compounds such as N1915 or orthovanadate to each well. (use inhibitor conc at 1 mM; orthovanadate at 2 mM and N1915 at 1 mM) • Add 10 μl of apyrase (concentration based on optimization —Dilute 1 U/μl enzyme to different concentrations such as 0.1U, 0.05U, 0.0025, 0.001U, 0.0005U—to find a good range) • Incubate plate at room temperature for 1 hr • Mix development buffer A and B in the ratio of 1:1.5 (just before use). • Add 50 ul of A:B mix in each well (incubate for 2 mins) • Add 50 ul of C in each well • Measure/Read Absorbance of plate @630 nm
Inhibitory data for the apyrase assay described above are provided for selected compounds in Table 3. In Table 3, D indicates inhibition of <10%.
With reference to Table 3, percent inhibition of apyrase is reported as the rounded average of at least two assay results.

Row | SMILES | % Inhibition of Apyrase [2] | Pre-Emergence Amaranthus Kill Percentage [1]
1 | CSc1nnc(C(C)(C)C)c(=O)n1N [metribuzin, reference compound] |  | 0.0%
2 | O=C1CCCc2cc(NC(=O)c3cccc(C(=O)Nc4ccc5c(c4)CCCC(=O)N5)c3)ccc2N1 [Compound I-36, N^1,N^3-bis(2-oxo-2,3,4,5-tetrahydro-1H-benzo[b]azepin-7-yl)isophthalamide] | C (C indicates inhibition of from 10% to 20%) | 
3 | Nc1ccc(N2C(=O)c3ccccc3C2=O)c(Cl)c1 [Compound I-25, 2-(4-amino-2-chlorophenyl)isoindoline-1,3-dione] | C (C indicates inhibition of from 10% to 20%) | 
4 | CC(NC(=O)c1cccc(C(=O)Nc2ccccc2)c1)C(=O)N1CCS(=O)(=O)CC1 (centres unmarked) [Compound I-32, N^1-(1-(1,1-dioxidothiomorpholino)-1-oxopropan-2-yl)-N^3-phenylisophthalamide] | C (C indicates inhibition of from 10% to 20%) | 
5 | COc1ccc(C)cc1NC(=O)c1ccccc1C(=O)N(C)C1CCCCC1 [Compound I-8, N^1-cyclohexyl-N^2-(2-methoxy-5-methylphenyl)-N^1-methylphthalamide] | A (A indicates inhibition above 30%) | 
6 | CCNC(=O)c1cc(NC(=O)c2ccc(C(=O)Nc3ccccc3)cc2)nc2ccccc12 [Compound I-13, N^1-(4-(ethylcarbamoyl)quinolin-2-yl)-N^4-phenylterephthalamide] | B (B indicates inhibition of from 20% to 30%) | 
7 | CC(C)n1cc2ccc(NC(=O)c3ccc4c(c3)C(=O)NC4=O)cc2n1 [Compound I-24, N-(2-isopropyl-2H-indazol-6-yl)-1,3-dioxoisoindoline-5-carboxamide] | C (C indicates inhibition of from 10% to 20%) | 
8 | Cc1cc(C)c(NC(=O)c2ccc(C(=O)Nc3c(C)cc(C)cc3C)cc2)c(C)c1 [Compound I-51, N^1,N^4-dimesitylterephthalamide] | D (D indicates inhibition of <10%) | 
9 | CNC(=O)c1cccc(C(=O)Nc2ccc(NS(=O)(=O)C(F)(F)F)cc2)c1 [Compound I-56, N^1-methyl-N^3-(4-((trifluoromethyl)sulfonamido)phenyl)iso-phthalamide] | D (D indicates inhibition of <10%) | 
10 | CN(C(=O)c1ccccc1C(=O)Nc1cccc(C(F)(F)F)c1)C1CCCCC1 [Compound I-43, N^1-cyclohexyl-N^1-methyl-N^2-(3-(trifluoromethyl)phenyl)phthalamide] | D (D indicates inhibition of <10%) | 
11 | CC(C)Cn1c(=O)c2ccccc2c(=O)n1C [Compound I-15, 2-isobutyl-3-methyl-2,3-dihydrophthalazine-1,4-dione] | B (B indicates inhibition of from 20% to 30%) | 
12 | O=C(NCC#Cc1ccccc1)c1ccc(C(=O)Nc2ccccc2)cc1 [Compound I-23, N1-phenyl-N4-(3-phenylprop-2-yn-1-yl)terephthalamide] | C (C indicates inhibition of from 10% to 20%) | 
13 | CNC(=O)c1cccc(C(=O)Nc2ccc3[nH]c(=O)sc3c2)c1 [Compound I-50, N^1-methyl-N^3-(2-oxo-2,3-dihydrobenzo[d]thiazol-6-yl)isophthalamide] | D (D indicates inhibition of <10%) | 
14 | CCn1cc2ccc(NC(=O)c3cccc(C(=O)NC)c3)cc2n1 [Compound I-22, N^1-(2-ethy1-2H-indazol-6-yl)-N^3-methylisophthalamide] | C (C indicates inhibition of from 10% to 20%) | 
15 | O=C(Nc1ccccc1)c1cccc(C(=O)Nc2[nH]ncc2-c2ccc3c(c2)OCO3)c1 [Compound I-16, N1-(4-(benzo[d][1,3]dioxol-5-yl)-1H-pyrazol-5-yl)-N3-phenylisophthalamide] | B (B indicates inhibition of from 20% to 30%) | 
16 | O=C(NCc1cccc(-n2ccnc2)c1)c1ccc(C(=O)Nc2ccccc2)cc1 [Compound I-27, N^1-(3-(1H-imidazol-1-yl)benzyl)-N^4-phenylterephthalamide] | C (C indicates inhibition of from 10% to 20%) | 
17 | CN(C(=O)c1ccccc1C(=O)Nc1ccc2c(c1)OCO2)C1CCCCC1 [Compound I-18, N^1-(benzo[d][1,3]dioxol-5-yl)-N^2-cyclohexyl-N^2-methylphthalamide] | B (B indicates inhibition of from 20% to 30%) | 
18 | CN1CCN(C(=O)c2ccccc2C(=O)Nc2ccc(F)cc2)CC1 [Compound I-53, N-(4-fluorophenyl)-2-(4-methylpiperazine-1-carbonyl)benzamide] | D (D indicates inhibition of <10%) | 
19 | CN(C)C(=O)c1ccccc1C(=O)Nc1ccc2c(c1)OCCCO2 [Compound I-12, N^1-(3,4-dihydro-2H-benzo[b][1,4]dioxepin-7-yl)-N^2,N^2-dimethylphthalamide] | B (B indicates inhibition of from 20% to 30%) | 
20 | CN(C(=O)c1cccc(C(=O)Nc2cc(Br)ccc2F)c1)c1ccccc1 [Compound I-65, N^1-(5-bromo-2-fluorophenyl)-N3-methyl-N^3-phenylisophthalamide] | D (D indicates inhibition of <10%) | 
21 | COCC#CCn1c(=O)c2ccccc2c(=O)n1C [Compound I-31, 2-(4-methoxybut-2-yn-1-yl)-3-methyl-2,3-dihydrophthalazine-1,4-dione] | C (C indicates inhibition of from 10% to 20%) | 
22 | Cc1cccc(C)c1NC(=O)c1ccccc1C(=O)N(C)Cc1ccccc1 [Compound I-37, N^1-benzyl-N^2-(2,6-dimethylphenyl)-N1-methylphthalamide] | D (D indicates inhibition of <10%) | 
23 | Cn1c(=O)c2ccccc2c(=O)n1Cc1nnc(C2CC2)o1 [Compound I-59, 2-((5-cyclopropyl-1,3,4-oxadiazol-2-yl)methyl)-3-methyl-2,3-dihydrophthalazine-1,4-dione] | D (D indicates inhibition of <10%) | 

Second part, led by results:

Row | % Inhibition of Apyrase [2] | SMILES | Pre-Emergence Amaranthus Kill Percentage [1]
24 | D (D indicates inhibition of <10%) | O=C(Nc1ccccc1)c1ccc(C(=O)N[C@@H]2C[C@H]2c2ccccc2)cc1 [Compound I-42, N^1-phenyl-N^4-((1R,2S)-2-phenylcyclopropyl)terephthalamide] | 
25 | D (D indicates inhibition of <10%) | O=C(Nc1ccccc1-c1ncc[nH]1)c1ccc(C(=O)NC2CC2)cc1 [Compound I-47, N^1-(2-(1H-imidazol-2-yl)phenyl)-N^4-cyclopropylterephthalamide] | 
26 | D (D indicates inhibition of <10%) | O=C(NCc1ncc[nH]1)c1ccc(C(=O)Nc2ccccc2)cc1 [Compound I-48, N^1-((1H-imidazol-2-yl)methyl)-N^4-phenylterephthalamide] | 
27 | D (D indicates inhibition of <10%) | CNC(=O)c1cccc(C(=O)Nc2cccc(NC3CCCC3)c2)c1 [Compound I-44, N^1-(3-(cyclopentylamino)phenyl)-N^3-methylisophthalamide] | 
28 | A (A indicates inhibition above 30%) | Cc1ccc(NC(=O)c2ccc(C(=O)Nc3ccc(C)cc3)cc2)cc1 [Compound I-1, N^1,N^4-di-p-tolylterephthalamide] | 
29 | A (A indicates inhibition above 30%) | O=C(Nc1ccc(OC(F)(F)C(F)F)cc1)c1cccc(C(=O)Nc2ccc(OC(F)(F)C(F)F)cc2)c1 [Compound I-62, N^1,N^3-bis(4-(1,1,2,2-tetrafluoroethoxy)phenyl)isophthalamide] | 
30 | D (D indicates inhibition of <10%) | Cc1nc(NC(=O)c2ccc(C(=O)Nc3ccccc3)cc2)n[nH]1 [Compound I-39, N^1-(5-methyl-1H-1,2,4-triazol-3-yl)-N^4-phenylterephthalamide] | 
31 | D (D indicates inhibition of <10%) | O=C(Nc1ccc2scnc2c1)c1ccc(C(=O)NC2CC2)cc1 [Compound I-41, N^1-(benzo[d]thiazol-5-yl)-N^4-cyclopropylterephthalamide] | 
32 | D (D indicates inhibition of <10%) | Nc1ccnc(CNC(=O)c2ccc(C(=O)Nc3ccccc3)cc2)n1 [Compound I-55, N^1-((4-aminopyrimidin-2-yl)methyl)-N^4-phenylterephthalamide] | 
33 | A (A indicates inhibition above 30%) | Cc1cccc(CNC(=O)c2ccc(C(=O)Nc3cccc(-n4ccnn4)c3)cc2)c1 [Compound I-9, N^1-(3-(1H-1,2,3-triazol-1-yl)phenyl)-N^4-(3-methylbenzyl)terephthalamide] | 
34 | A (A indicates inhibition above 30%) | O=C(Nc1ccc2c(c1)OCCO2)c1ccc(C(=O)Nc2ccc3c(c2)OCCO3)cc1 [Compound I-6, N^1,N^4-bis(2,3-dihydrobenzo[b][1,4]dioxin-6-yl)terephthalamide] | 
35 | A (A indicates inhibition above 30%) | N#Cc1cccc(NC(=O)c2ccc(C(=O)Nc3cccc(C#N)c3)cc2)c1 [Compound I-67, N^1,N^4-bis(3-cyanophenyl)terephthalamide] | 
